Experimental data published in patent publication US20150359815A1, “PAK1 INHIBITION FOR TREATMENT OF ACUTE MYELOID LEUKEMIA AND MYELODYSPLASTIC SYNDROMES” (ALBERT EINSTEIN COLLEGE OF MEDICINE OF YESHIVA UNIVERSITY, priority 2013, published 2015).

Key:
THP1 AML cells [1] = test: Survival of mice injected with THP1 cells expressing PAK1 shRNA; assay type: in vivo; conditions: for liver infiltration of leukemia cells: animals receiving THP1 with shRNA vs control cells, not illustrated; for survival of mice: mice injected with 300,000 THP1 cells expressing shRNA, vs non-silencing control shRNA, FIG. 12B
Procedure: FIG. 12A-12B, Evaluation of PAK1 expression reduction in THP1 AML cells by shRNAs, A) Evaluated mRNA levels by RT-gPCR.
The effects on survival of reduced PAK1 expression in THP1 AML cells when expression was reduced by shRNAs was evaluated in mice.

THP1 AML cells [2] = test: Cell proliferation assay, THP1 AML cells; assay type: cell-based, human; conditions: FIG. 2, FIG. 7
Procedure: (§1) Cell proliferation, cell cycle, and apoptosis assays. For cell proliferation assays, manual cell counts were performed by culturing cells in 24- or 48-well plates. Viable cells were counted using trypan blue exclusion and cell density was re-adjusted in each well every 3-5 days. For cell cycle assays, the Click-iT™ EdU Flow Cytometry Assay system (Invitrogen) was used following the manufacturer's instructions. For apoptosis assays, apoptotic and necrotic cells were analyzed by use of Annexin V/DAPI staining.

KG1a AML cells = test: Cell proliferation assay, KG1a AML cells; assay type: cell-based, human; conditions: FIG. 2
Procedure: as §1

AML cells [3] = test: Colony formation assay, AML cells; assay type: cell-based; conditions: FIG. 4
Procedure: (§2) Colony, formation assays and serial replating assays. Assays were performed in MethoCult M3434 (Stern Cell Technologies, Vancouver, BC) containing IL-3, IL-6, SCF, and EPO or in MethoCult M3234 supplemented with M-CSF or GM-CSF as previously described (Higuchi et al, 2002; Huntly et al, 2004;Will et al, 2009). GFP+ colonies were scored 8-10 days after plating using an AXIOVERT 200M microscope (Zeiss, Maple Grove, Minn.). After scoring, GFP+ cells were re-sorted after each round and then serial replating assays were carried out. Cells were replated and colonies were again scored after 10-14 days.

MOLM13 = test: Cell proliferation assay, MOLM13 AML cells; assay type: cell-based, human; conditions: FIG. 2
Procedure: as §1

HL60 AML cells = test: Cell proliferation assay, HL60 AML cells; assay type: cell-based, human; conditions: FIG. 2, FIG. 3
Procedure: as §1

STAT4 = STAT4 expression in THP1 cells (Western Blot, qRT-PCR); assay type: cell-based, human; conditions: FIG. 10
Procedure: FIG. 10A-10B. STAT4 expression is increased upon treatment with Compound 1 (IPA-3) or PAKI shRNA knockdown in THP1 cells. A) Western Blot; B) qRT-PCR.
Quantitative real-time PCR. Total RNA was extracted from FACS-sorted cells or cultured cells using RNeasy Micro kit (Qiagen, Valencia, Calif.). cDNA was synthesized by Superscript II reverse transcriptase (Invitrogen, Carlsbad, Calif.). Real-time PCR was performed using an iQ5 real-time PCR detection system (BIO-RAD, Hercules, Calif.) with 1 cycle of 50° C. (2 min) and 95° C. (10 min) followed by 40 cycles of 95° C. (15 sec) and 60° C. (1 min) using Power SYBR Green PCR master mix (AB, Carlsbad, Calif.).
Western blotting. Total cell lysates were extracted in lysis buffer (50 mM Tris-Cl (pH 7.5), 1 mM EDTA, 150 mM NaCl, 1%NP-40, 1% sodium deoxycholate, 1 mM PMSF, and protease inhibitor (Roche)). Anti-Hlx polyclonal rabbit antibody (SantaCruz, clone H-130, sc-135014) and anti-actin polyclonal goat antibody (Santa Cruz, clone C-11, sc1615) were used as primary antibodies, […] anti-rabbit or anti-goat antibody (Santa Cruz) were used as secondary antibodies. ECL solution (Pierce) was used for detection.
(§3) In contrast, STAT4 expression is increased upon treatment with Compound 1 or PAK1 shRNA knockdown in THP1 cells (FIG. 10).

AML cells [4] = test: Apoptosis assay (Annexin V/DAPI), AML cells; assay type: cell-based; conditions: 24 hours of incubation, FIG. 6
Procedure: FIG. 6. […] 24 hours of incubation with Compound 1 (assay by Annexin V/DAPI), Black—Percentage of live cells; Grey—Percentage of apoptotic cells.
as §1

[5] = tested on: AML and MDS cells isolated from the bone marrow of AML and MDS patients; test: Growth of primary patient AML/MDS cells versus healthy donor hematopoietic cells; assay type: cell-based, human; conditions: primary bone marrow and peripheral blood samples; *p<0.05, **p<0.01; FIG. 5
Procedure: The experiments illustrated in FIG. 5 were performed using primary bone marrow and peripheral blood samples given by healthy donors and by patients with acute myeloid leukemia.

[6] = tested on: downstream signaling pathways of PAK1; test: Phosphorylation status of kinases in THP1 leukemia cells; assay type: cell-based, human; conditions: 4 hours, 6 μg/ml IPA-3 vs DMSO, FIG. 9
From the text: FIG. 9. Effect of Compound 1 (IPA-3) on downstream signaling pathways of PAKI.
as §3

[7] = tested on: cells from a patient with myelodysplastic syndrome (MDS); test: Colony formation of cells from a patient with myelodysplastic syndrome; assay type: cell-based, human; conditions: FIG. 8
Procedure: FIG. 8. Compound 1-mediated inhibition of PAK1: effects on colony formation of cells from a patient with myelodysplastic syndrome (MDS). Inhibition of PAKI is effective in both myelodysplastic syndrome (MDS) and acute myeloid leukemia (AML).
as §2
FIG. 8 illustrates Compound 1-mediated inhibition of PAK1 effects on colony formation of cells from a patient with myelodysplastic syndrome (MDS) Inhibition of PAK1 is effective in both myelodysplastic syndrome (MDS) and acute myeloid leukemia (AML). See also FIG. 5.

shRNA #1: short hairpin sequence for human PAK1, CGATGAGAAATACCAGCACTA, expressed by lentivirus (the letters are possibly those of the target site)
liver infiltration of leukemia cells (THP1 AML cells [1]): Significantly less liver infiltration of leukemia cells | survival of mice (THP1 AML cells [1]): Significant prolongation of survival

Cc1nc(Nc2n[nH]c3c2CN(C(=O)N[C@H](CN(C)C)c2ccccc2)C3(C)C)c2sccc2n1 [Compound 2, (S)-N-(2-(dimethylamino)-1-phenylethyl)-6,6-dimethyl-3-((2-methylthieno[3,2-d]pyrimidin-4-yl)amino)-4,6-dihydropyrrolo[3,4-c]pyrazole-5(1H)-carboxamide]
proliferation of THP1 AML cells (THP1 AML cells [2]): reduces proliferation

Oc1ccc2ccccc2c1SSc1c(O)ccc2ccccc12 [Compound 1, 1,1′-Disulfanediyldinaphthalen-2-ol]
proliferation of KG1a AML cells (KG1a AML cells): reduces proliferation | colony formation ability of AML cells (AML cells [3]): reduces colony formation ability | proliferation of MOLM13 AML cells (MOLM13): reduces proliferation | proliferation of HL60 AML cells (HL60 AML cells): reduces proliferation | STAT4 expression (STAT4): increased | proliferation of THP1 AML cells (THP1 AML cells [2]): reduces proliferation | apoptosis in AML cells (AML cells [4]): induces apoptosis | effect on growth of AML and MDS patient cells compared with healthy hematopoietic cells [5]: greater effect | several additional oncogenic signaling pathways (kinase phosphorylation status) [6]: significantly inhibited | colony formation of cells from a patient with MDS [7]: effective

shRNA #2: short hairpin sequence for human PAK1, GCGATCCTAAGAAGAAATATA, expressed by lentivirus (the letters are possibly those of the target site)
liver infiltration of leukemia cells (THP1 AML cells [1]): Significantly less liver infiltration of leukemia cells | long-term survival of some mice (THP1 AML cells [1]; entire duration of the assay (90 days)): long-term survival | survival of mice (THP1 AML cells [1]): Significant prolongation of survival
